Laboratory results as given in patent US20050054620A1, “Paricalcitol as a chemotherapeutic agent” (priority 2003, published 2005).

Experiments:
24-hydroxylase mRNA [1] = assay: RT-PCR of 24-hydroxylase mRNA in HT-29 cells; format: cell-based, human; details: 10^−7M
Experimental: In FIG. 6B, HT-29 colon cancer cells were treated with paricalcitol (10^−7M) for 0, 6, 12 or 24 hrs and RNA was harvested. Expression of 24 hydroxylase mRNA was analysed by RT-PCR. The amounts of mRNA were normalized by comparison to 18S RNA. […] For the PCR analysis, RNA extraction and reverse transcription were done by TRIzole (Invitrogen, Carlsbad, Calif.) and reverse transcriptase (Promega, Madison, Wis.). A twenty-microliter volume of cDNA was prepared from 1 μg of RNA. cDNAs were amplified by PCR with specific primers for 24-hydroxylase and 18S. The cycle number was 25 for 18S and 32 for 24-hydroxylase. PCR product was separated on a 2% agarose gel, stained with ethidium bromide, and photographed.

24-hydroxylase mRNA [2] = assay: RT-PCR of 24-hydroxylase mRNA, spleen mononuclear cells of VDR knock-out mice; format: cell-based; details: cells from VDR−/− mice; 10^−8 M
Experimental: Expression of 24 hydroxylase mRNA was analysed by RT-PCR. The amounts of mRNA were normalized by comparison to 18S RNA. For the PCR analysis, RNA extraction and reverse transcription were done by TRIzole (Invitrogen, Carlsbad, Calif.) and reverse transcriptase (Promega, Madison, Wis.). A twenty-microliter volume of cDNA was prepared from 1 μg of RNA. cDNAs were amplified by PCR with specific primers for 24-hydroxylase and 18S. The cycle number was 25 for 18S and 32 for 24-hydroxylase. PCR product was separated on a 2% agarose gel, stained with ethidium bromide, and photographed.

[3] = tested on: mononuclear bone marrow cells from wild type (WT) mice; assay: Colony-forming assay in methylcellulose, wild type mice; format: cell-based; details: 10^−8 M
Source text: In FIG. 6D, colony formation by mononuclear bone marrow cells from VDR knock-out (VDR-KO) and wild type (WT) mice is shown. Mononuclear cells were obtained from femoral bone marrow plugs and grown in methylcellulose culture media with either paricalcitol (10^−8M) or diluant. Colonies were counted on day 10 of culture. The number of total colonies (average) were 87 (control) and 66 (paricalcitol 10^−8M) in wild type mice, and 110 (control) and 122 (paricalcitol 10^−8M) in VDR-KO mice. The percentage of macrophage, granulocyte and mixed granulocyte/macrophage colonies are shown. Triplicate wells for each mouse and a total of three KO and three WT mice were studied. G, granulocyte colonies; G/M mixed granulocyte/macrophage colonies; M, macrophage colonies.
The VDR KO Mouse and Colony-Forming Assay was performed as follows. VDR KO mice were generated and genotypes were determined by Southern Blot Analysis as described previously (O'Kelly et al., supra, 2002). For experiments using VDR KO mice, their wild-type (WT) littermates were used as controls. Mice were killed by cervical neck dislocation. Bone marrow was flushed out of isolated femurs with (a-MEM; Gibco BRL, Grand Island, N.Y., USA) including 10% FCS using a 26-gauge needle. Isolated spleens were injected with DMEM (Gibco BRL) plus 10% FCS and crushed with forceps to release cells. Mononuclear cells from bone marrow or spleen were separated by Ficoll-Hypaque density centrifugation (Amersham Pharmacia, Uppsala, Sweden). Resuspended mononuclear bone marrow cells (2×10^4 cells/ml) and growth factors were added 1:10 to methylcellulose medium M3234 (StemCell Technologies Inc., Vancouver, British Columbia, Canada) to yield a final concentration of 1% methylcellulose, 30% FCS, 1% BSA, 10^-4M mercaptoethanol, and 2 mM L-glutamine as described previously (19). Cells were plated in six-well plates in a volume of 1 ml and incubated at 37° C. in a humidified atmosphere containing 5% CO2. Colonies were counted after 2 weeks. Colony type was established by morphology; and to ensure accurate determination, representative colonies were plucked from the plates, centrifuged onto slides, stained with Wright-Giemsa stain and examined by light microscopy.

ARH-77 myeloma cells = assay: MTT assay; format: cell-based, human
24-hydroxylase mRNA [4] = assay: RT-PCR of 24-hydroxylase mRNA in NB-4 cells; format: cell-based, human; details: paricalcitol 0.1 μM, arsenic trioxide 0.6 μM, after 24 hrs
Experimental: HL-60 and NB-4 myeloid leukemia cell lines were treated with paricalcitol (0.01 μM for HL-60, 0.1 μM for NB-4) and/or arsenic trioxide (0.8 μM for HL-60, 0.6 μM for NB-4). Control cells were treated with vehicle alone. […] Cell lysates were also made and used for Western blot which was probed with antibodies to C/EBPβ. (B) Cell lysate of HL-60 cells were made after 3 days and used for Western blot which was probed sequentially with antibodies to Bcl-2, BclXL and Bax (C) Cell lysates of HL-60 cells were made after 1, 2 or 3 days and used for Western blot which was probed sequentially with antibodies to phosphorylated ERK. (D) After pretreatment either with or without […] of PD98059 for 1 hour, HL-60 cells were treated with paricalcitol (0.01 μM) and/or arsenic trioxide (0.8 μM) for 2 days. Control cells were treated with vehicle alone. CD14 expression was measured by flow cytometry.
In FIG. 6B, HT-29 colon cancer cells were treated with paricalcitol (10^−7M) for 0, 6, 12 or 24 hrs and RNA was harvested. Expression of 24 hydroxylase mRNA was analysed by RT-PCR. The amounts of mRNA were normalized by comparison to 18S RNA. In FIG. 6C, mononuclear cells extracted from spleens of either wild type or VDR knock-out mice were treated with paricalcitol (10^−8M) for either 12 or 24 hrs, and RNA was harvested. Expression of 24 hydroxylase mRNA was analysed by RT-PCR. […]

PML-RARα fusion protein = assay: Western blot for PML-RARα in PR9 cells with zinc; format: cell-based, human
Experimental: (A) NB-4 myeloid leukemia cell lines were treated with paricalcitol (0.1 μM) and/or arsenic trioxide (0.6 μM) for 3 days. Control cells were treated with vehicle alone. Cell lysates were made and used for Western blot which was probed sequentially with antibodies to RARA to detect the fusion protein PML-RARα. (B) U937 cells were stably transfected with either the control MT vector (U937-PMT) or the PML-RARα cDNA under the control of the Zn2^+-inducible murine metallothionein 1 promoter (PR9). Cells were treated either with (+) or without (−) Zn for 2 days. Paricalcitol and/or arsenic trioxide of the indicated doses were added to the cells. […] (C) U937-PMT and PR9 cells were treated either with or without Zn and with paricalcitol, and/or arsenic trioxide as indicated for 3 days, and CD14 expression was measured by flow cytometry.
Western blot analysis was performed as follows: cells were washed twice in PBS, suspended in lysis buffer (50 mM Tris at pH 8.0, 150 mM NaCl, 0.1% SDS, 0.5% sodium deoxycholate, 1% Nonidet P-40, phenylmethylsulfonyl fluoride at 100 μg/mL, aprotinin at 2 μg/mL, pepstatin at 1 μg/mL, and leupetin at 10 μg/mL), and placed on ice for 30 minutes. […] Protein concentrations were quantitated by using the Bio-Rad protein Assay Dye Reagent Concentrate (Bio-Rad Laboratories, Hercules, Calif.) according to the manufacture's recommendation. […]

Compound	time of exposure within which 24-hydroxylase mRNA expression was induced (24-hydroxylase mRNA [1])	induction of 24-hydroxylase (24-hydroxylase mRNA [2])	percentage of granulocyte colonies ([3]; control 23±4%)	percentage of macrophage colonies ([3]; control 32±4%)	percentage of mixed colonies ([3]; control 43±7%)	number of total colonies (average) ([3]; control 87)	antiproliferative effect (ARH-77 myeloma cells)	mRNA levels of 24-hydroxylase (24-hydroxylase mRNA [4])	concentration at which PML-RARα protein expression was barely detectable (PML-RARα fusion protein; PR9 cells with zinc)	protein level of PML-RARa induced by zinc (PML-RARα fusion protein; PR9 cells, dose dependent)
C[C@H](/C=C/[C@H](C)C(C)(C)O)[C@H]1CC[C@H]2/C(=C/C=C3C[C@@H](O)C[C@H](O)C3)CCC[C@]12C [paricalcitol, 19-nor-1,25, (OH)2D3]	≤ 6 h	not inducible	6±3%	69±2%	25±5%	66	somewhat less than the effect on NCI-H929 cells	increased		
arsenic trioxide									over 0.4 μM	decreased the protein level of PML-RARa
